Test results: patent US20240415819A1, “MACROCYCLIC COMPOUNDS AS PROTEASOME SUBUNIT BETA TYPE-5 INHIBITORS” (Lead Discovery Center GmbH, priority 2021, published 2024)
pIC50: −log10 of the molar value.

Assays:
[1] = target: T1, β5 subunit of the human constitutive proteasome (CPS) (Homo sapiens, UniProt P28074); assay: β5 inhibition assay, human constitutive proteasome (Suc-LLVY-AMC); format: biochemical; conditions: IC50 class, Suc-LLVY-AMC substrate
T1 construct: purchased Boston Biochem E-360
Procedure: The enzymatic activity of the β5 subunit of the human constitutive proteasome (CPS) is analyzed. In another assay, which differs from the assay of the human constitutive proteasome only in using the human immunoproteasome (IPS) the enzymatic activity of the β5 subunit of the human immunoproteasome (IPS) is analyzed. […] Inhibition is indicated as IC50 [nM] (“-”=not measured).

[2] = target: T2, β5 subunit of the human immunoproteasome (IPS) (Homo sapiens, UniProt P28062); assay: β5 inhibition assay, human immunoproteasome (Suc-LLVY-AMC); format: biochemical; conditions: IC50 class, Suc-LLVY-AMC substrate
T2 construct: purchased Boston Biochem E-370
Method in brief: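 Human immunoproteasome (1 nM final) was preincubated 10 min at RT with compound in 100 mM HEPES pH 7.5, 50 mM NaCl, 0.02% SDS, 1 mM DTT. Suc-LLVY-AMC (22.6 μM final) was then added for 4 h at RT in the dark. After stopping with 1 μM bortezomib, AMC fluorescence was read (ex 355/em 460 nm).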

HT-29 cells = assay: CellTiter-Glo luminescent cell viability assay with HT-29 cells (72h incubation); format: cell-based, human; conditions: Homo sapiens, HT-29, HT29 cells, read-out: CTG HT29
Method in brief: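 400 cells per well in DMEM/10% FCS were dosed after 24 h and kept 72 h at 37 °C, 5% CO2. ATP-based luminescence (CellTiter-Glo) normalized to DMSO and 10 μM staurosporine controls; IC50 by dose-response fit.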

CC(=O)N[C@H]1CC(=O)N2CCCC(CCOc3ccc(C)c(c3)CNC(=O)C(c3cnn(CCCS(=O)(=O)O)c3)NC1=O)C2 (stereo partly drawn) [Compound 571, 3-(4-((12S)-12-acetamido-5^4-methyl-8,11,14-trioxo-4-oxa-7,10-diaza-1(3,1)-piperidina-5(1,3)-benzenacyclotetradecaphane-9-yl)-1H-pyrazol-1-yl)propane-1-sulfonic acid] was tested, and the pIC50 [1] was greater than 7.00, the pIC50 [2] was greater than 7.00 and the pIC50 (HT-29 cells) was 6.00 to 6.30.
COc1ccc(CC(=O)N[C@H]2CC(=O)N3CCCC(CCOc4ccc(C)c(c4)CNC(=O)[C@H](CCc4ccccc4)NC2=O)C3)cc1OC (stereo partly drawn) [Compound 63, 2-(3,4-dimethoxyphenyl)-N-((9S,12S)-5^4-methyl-8,11,14-trioxo-9-phenethyl-4-oxa-7,10-diaza-1(3,1)-piperidina-5(1,3)-benzenacyclotetradecaphane-12-yl)acetamide] showed a pIC50 [1] greater than 7.00, a pIC50 [2] greater than 7.00 and a pIC50 (HT-29 cells) greater than 7.00.
COc1ccc2cc1CNC(=O)[C@H](CCc1ccccc1)NC(=O)[C@@H](NC(C)=O)CC(=O)N1CCCC(CCO2)C1 (stereo partly drawn) [Compound 211, N-((9S,12S)-5^4-methoxy-8,11,14-trioxo-9-phenethyl-4-oxa-7,10-diaza-1(3,1)-piperidina-5(1,3)-benzenacyclotetradecaphane-12-yl)acetamide] gave a pIC50 [1] of 6.30 to 7.00, a pIC50 [2] greater than 7.00 and a pIC50 (HT-29 cells) of 6.30 to 7.00.
With Cc1ccc2cc1CNC(=O)[C@H](CCc1ccccc1)NC(=O)[C@@H](NC(=O)C1CCN1)CC(=O)N1CCCC(CCO2)C1 (stereo partly drawn) [Compound 160, (2R)-N-((9S,12S)-5^4-methyl-8,11,14-trioxo-9-phenethyl-4-oxa-7,10-diaza-1(3,1)-piperidina-5(1,3)-benzenacyclotetradecaphane-12-yl)azetidine-2-carboxamide] the pIC50 [1] was greater than 7.00, the pIC50 [2] was greater than 7.00 and the pIC50 (HT-29 cells) was greater than 7.00.
Cc1ccc2cc1CNC(=O)[C@H](CCc1ccccc1)NC(=O)[C@@H](NC(=O)C1CCCc3ccccc31)CC(=O)N1CCCC(CCO2)C1 (stereo partly drawn) [Compound 82, N-((9S,12S)-5^4-methyl-8,11,14-trioxo-9-phenethyl-4-oxa-7,10-diaza-1(3,1)-piperidina-5(1,3)-benzenacyclotetradecaphane-12-yl)-1,2,3,4-tetrahydronaphthalene-1-carboxamide] was tested, and the pIC50 [1] was greater than 7.00, the pIC50 [2] was greater than 7.00 and the pIC50 (HT-29 cells) was greater than 7.00.
Cc1ccc2cc1CNC(=O)[C@H](CCc1ccccc1)NC(=O)[C@@H](N)CC(=O)N1CCCC(CCO2)C1 (stereo partly drawn) [Compound 8, (9S,12S)-12-amino-5^4-methyl-9-phenethyl-4-oxa-7,10-diaza-1(3,1)-piperidina-5(1,3)-benzenacyclotetradecaphane-8,11,14-trione] gave a pIC50 [1] greater than 7.00, a pIC50 [2] greater than 7.00 and a pIC50 (HT-29 cells) of 6.30 to 7.00.
Compound Cc1ccc2cc1CNC(=O)[C@H](CCc1ccccc1)NC(=O)[C@@H](NC(=O)C1(C)CCOCC1)CC(=O)N1CCCC(CCO2)C1 (stereo partly drawn) [Compound 288, 4-methyl-N-((9S,12S)-5^4-methyl-8,11,14-trioxo-9-phenethyl-4-oxa-7,10-diaza-1(3,1)-piperidina-5(1,3)-benzenacyclotetradecaphane-12-yl)tetrahydro-2H-pyran-4-carboxamide] has a pIC50 [1] greater than 7.00, a pIC50 [2] greater than 7.00 and a pIC50 (HT-29 cells) greater than 7.00.
Cc1ccc2cc1CNC(=O)[C@H](CCc1ccccc1)NC(=O)[C@@H](NC(=O)c1ccncc1)CC(=O)N1CCCC(CCO2)C1 (stereo partly drawn) [Compound 42, N-((9S,12S)-5^4-methyl-8,11,14-trioxo-9-phenethyl-4-oxa-7,10-diaza-1(3,1)-piperidina-5(1,3)-benzenacyclotetradecaphane-12-yl)isonicotinamide] gave a pIC50 [1] greater than 7.00, a pIC50 [2] greater than 7.00 and a pIC50 (HT-29 cells) greater than 7.00.
Cc1ccc2cc1CNC(=O)[C@H](CCc1ccccc1)NC(=O)[C@@H](NC(=O)C(C)(C)CO)CC(=O)N1CCCC(CCO2)C1 (stereo partly drawn) [Compound 284, 3-hydroxy-2,2-dimethyl-N-((9S,12S)-5^4-methyl-8,11,14-trioxo-9-phenethyl-4-oxa-7,10-diaza-1(3,1)-piperidina-5(1,3)-benzenacyclotetradecaphane-12-yl)propanamide] gave a pIC50 [1] greater than 7.00, a pIC50 [2] greater than 7.00 and a pIC50 (HT-29 cells) greater than 7.00.
With Cc1ccc2cc1CNC(=O)[C@H](CCc1ccccc1)NC(=O)[C@@H](NC(=O)Cc1ccc(N)cc1)CC(=O)N1CCCC(CCO2)C1 (stereo partly drawn) [Compound 128, 2-(4-aminophenyl)-N-((9S,12S)-5^4-methyl-8,11,14-trioxo-9-phenethyl-4-oxa-7,10-diaza-1(3,1)-piperidina-5(1,3)-benzenacyclotetradecaphane-12-yl)acetamide] the pIC50 [1] was greater than 7.00, the pIC50 [2] was greater than 7.00 and the pIC50 (HT-29 cells) was greater than 7.00.
CC(=O)N[C@H]1CCC(=O)N(C)CCCCOc2ccc(C)c(c2)CNC(=O)[C@H](CCc2ccccc2)NC1=O [Compound 282, N-((11S,14S)-1^4,7-dimethyl-8,12,15-trioxo-1^4-phenethyl-2-oxa-7,13,16-triaza-1(1,3)-benzenacycloheptadecaphane-11-yl)acetamide] gave a pIC50 [1] of less than 5.30, a pIC50 [2] of 6.00 to 6.30 and a pIC50 (HT-29 cells) of 6.30 to 7.00.
Work on Cc1ccc2cc1CNC(=O)[C@@H](CCc1ccccc1)NC(=O)[C@@H](NC(=O)OCc1ccccc1)CC(=O)N1CCC[C@H](CCO2)C1 [Compound 289, benzyl ((13R,9R,12S)-5^4-methyl-8,11,14-trioxo-9-phenethyl-4-oxa-7,10-diaza-1(3,1)-piperidina-5(1,3)-benzenacyclotetradecaphane-12-yl)carbamate] yielded a pIC50 [1] of 6.30 to 7.00, a pIC50 [2] of 6.30 to 7.00 and a pIC50 (HT-29 cells) of 6.30 to 7.00.
Cc1ccc2cc1CNC(=O)[C@H](CCc1ccccc1)NC(=O)[C@@H](NC(=O)OCc1ccccc1)CCCC(=O)N1CCCC(CCO2)C1 (stereo partly drawn) [Compound 195, benzyl ((9S,12S)-5^4-methyl-8,11,16-trioxo-9-phenethyl-4-oxa-7,10-diaza-1(3,1)-piperidina-5(1,3)-benzenacyclohexadecaphane-12-yl)carbamate] showed a pIC50 [1] greater than 7.00, a pIC50 [2] greater than 7.00 and a pIC50 (HT-29 cells) greater than 7.00.
In the case of CNCCOCC(=O)N[C@H]1CC(=O)N2CCCC(CCOc3ccc(C)c(c3)CNC(=O)[C@H](CCc3ccccc3)NC1=O)C2 (stereo partly drawn) [Compound 130, N-((9S,12S)-5^4-methyl-8,11,14-trioxo-9-phenethyl-4-oxa-7,10-diaza-1(3,1)-piperidina-5(1,3)-benzenacyclotetradecaphane-12-yl)-2-(2-(methylamino)ethoxy)acetamide], the pIC50 [1] was greater than 7.00, the pIC50 [2] was greater than 7.00 and the pIC50 (HT-29 cells) was 6.30 to 7.00.
With COCCOCCOCCOC(=O)N[C@H]1CC(=O)N2CCCC(CCOc3ccc(C)c(c3)CNC(=O)[C@H](CCc3ccccc3)NC1=O)C2 (stereo partly drawn) [Compound 220, 2-(2-(2-methoxyethoxy)ethoxy)ethyl ((9R,12R)-5^4-methyl-8,11,14-trioxo-9-phenethyl-4-oxa-7,10-diaza-1(3,1)-piperidina-5(1,3)-benzenacyclotetradecaphane-12-yl)carbamate] the pIC50 [1] was greater than 7.00, the pIC50 [2] was greater than 7.00 and the pIC50 (HT-29 cells) was greater than 7.00.
CCC(CC)(CO)C(=O)N[C@H]1CC(=O)N2CCCC(CCOc3ccc(C)c(c3)CNC(=O)[C@H](CCc3ccccc3)NC1=O)C2 (stereo partly drawn) [Compound 285, 2-ethyl-2-(hydroxymethyl)-N-((9S,12S)-5^4-methyl-8,11,14-trioxo-9-phenethyl-4-oxa-7,10-diaza-1(3,1)-piperidina-5(1,3)-benzenacyclotetradecaphane-12-yl)butanamide] showed a pIC50 [1] greater than 7.00, a pIC50 [2] greater than 7.00 and a pIC50 (HT-29 cells) greater than 7.00.
